biological target: Angiotensin-converting enzyme (Homo sapiens, UniProt P12821); assay: Inhibition of ACE by fluorometric assay
Sequence (P12821 whole entry): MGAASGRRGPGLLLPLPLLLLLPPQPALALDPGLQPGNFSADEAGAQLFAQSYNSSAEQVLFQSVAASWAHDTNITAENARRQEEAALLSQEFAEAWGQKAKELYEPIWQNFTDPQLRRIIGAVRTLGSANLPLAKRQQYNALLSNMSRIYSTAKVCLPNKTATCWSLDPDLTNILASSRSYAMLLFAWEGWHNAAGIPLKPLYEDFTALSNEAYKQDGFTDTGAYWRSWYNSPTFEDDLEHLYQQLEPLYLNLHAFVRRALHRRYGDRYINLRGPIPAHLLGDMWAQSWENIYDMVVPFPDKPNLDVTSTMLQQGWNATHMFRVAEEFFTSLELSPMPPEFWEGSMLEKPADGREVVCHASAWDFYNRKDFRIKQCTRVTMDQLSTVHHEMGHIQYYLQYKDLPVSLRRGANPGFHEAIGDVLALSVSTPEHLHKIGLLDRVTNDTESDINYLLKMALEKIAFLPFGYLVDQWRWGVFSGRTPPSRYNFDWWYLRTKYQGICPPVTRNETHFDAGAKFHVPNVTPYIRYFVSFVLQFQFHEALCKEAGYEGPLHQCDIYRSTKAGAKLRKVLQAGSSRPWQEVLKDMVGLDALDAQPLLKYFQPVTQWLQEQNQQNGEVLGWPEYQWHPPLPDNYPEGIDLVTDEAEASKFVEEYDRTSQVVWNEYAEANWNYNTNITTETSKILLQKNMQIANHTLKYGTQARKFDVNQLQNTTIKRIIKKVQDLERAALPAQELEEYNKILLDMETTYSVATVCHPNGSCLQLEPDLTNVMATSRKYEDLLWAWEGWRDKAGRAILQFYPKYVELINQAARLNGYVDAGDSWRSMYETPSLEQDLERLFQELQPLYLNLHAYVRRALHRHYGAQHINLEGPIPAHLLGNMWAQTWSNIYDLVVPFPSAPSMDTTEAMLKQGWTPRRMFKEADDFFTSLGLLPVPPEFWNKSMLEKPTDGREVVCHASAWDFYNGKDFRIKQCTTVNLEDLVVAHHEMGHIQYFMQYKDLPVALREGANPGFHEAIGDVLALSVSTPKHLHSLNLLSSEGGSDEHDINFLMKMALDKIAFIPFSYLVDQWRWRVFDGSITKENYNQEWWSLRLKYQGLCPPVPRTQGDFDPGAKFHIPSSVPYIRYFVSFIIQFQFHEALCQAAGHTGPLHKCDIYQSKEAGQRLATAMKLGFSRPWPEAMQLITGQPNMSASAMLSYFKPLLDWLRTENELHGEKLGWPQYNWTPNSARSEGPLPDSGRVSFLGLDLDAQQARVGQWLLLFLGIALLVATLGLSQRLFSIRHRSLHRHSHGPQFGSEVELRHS

| IC50 | Compound |
| --- | --- |
| 3.7 mM | O=C(O[C@@H]1O[C@@H]2COC(=O)c3cc(O)c(O)c(O)c3-c3c(cc(O)c(O)c3O)C(=O)O[C@H]([C@H]1O)[C@@H]2O)c1cc(O)c(O)c(O)c1 [CORILAGIN] |
| 5 mM | O=c1oc2c(O)c(O)cc3c(=O)oc4c(O)c(O)cc1c4c23 [ELLAGIC ACID] |
| 0.4 mM | O=C1O[C@H]2[C@@H]3OC(=O)c4cc(O)c(O)c(O)c4-c4c(cc(O)c(O)c4O)C(=O)OC[C@H]2O[C@@H](OC(=O)c2cc(O)c(O)c(O)c2)[C@@H]3OC(=O)c2cc(O)c(O)c3c2[C@@H]2C1=CC(=O)[C@](O)(O3)C2(O)O [GERANIIN] |

| Compound | IC50 |
| --- | --- |
| O=C(O)c1cc(O)c(O)c(O)c1 [GALLIC ACID] | 7.7 mM |

From ChEMBL document CHEMBL1150754, “Chemical and pharmaceutical studies on medicinal plants in Paraguay. Geraniin, an angiotensin-converting enzyme inhibitor from "paraparai mi," Phyllanthus niruri” (J Nat Prod, 1988)
